The molecules below were run against Human immunodeficiency virus type 1 protease (Human immunodeficiency virus 1, UniProt Q72874) (assay: Inhibitory activity was measured against wild-type HIV-1 protease).
For `CN(Cc1ccccn1)C(=O)[C@H]1[C@H](C(=O)N[C@@H](Cc2ccccc2)[C@@H](O)[C@H](O)[C@H](Cc2ccccc2)NC(=O)[C@H]2[C@H](C(=O)N(C)Cc3ccccn3)C2(C)C)C1(C)C`, the Ki was 80 nM. Work on `CC1(C)[C@@H](C(=O)NCc2ccccc2)[C@@H]1C(=O)N[C@@H](Cc1ccccc1)[C@@H](O)[C@H](O)[C@H](Cc1ccccc1)NC(=O)[C@H]1[C@H](C(=O)NCc2ccccc2)C1(C)C` yielded a Ki of 0.31 nM. Work on `CC(C)[C@H](NC(=O)N(C)Cc1ccccn1)C(=O)N[C@@H](Cc1ccccc1)[C@@H](O)[C@H](O)[C@H](Cc1ccccc1)NC(=O)[C@@H](NC(=O)N(C)Cc1ccccn1)C(C)C` yielded a Ki of 0.11 nM. `C[C@H]1[C@@H](C(=O)NCc2ccccc2)[C@@H]1C(=O)N[C@@H](Cc1ccccc1)[C@@H](O)[C@H](O)[C@H](Cc1ccccc1)NC(=O)[C@@H]1[C@@H](C)[C@H]1C(=O)NCc1ccccc1` was tested, and the Ki was 0.16 nM. With `C[C@@H]1[C@@H](C(=O)NCc2ccccc2)[C@@H]1C(=O)N[C@@H](Cc1ccccc1)[C@@H](O)[C@H](O)[C@H](Cc1ccccc1)NC(=O)[C@@H]1[C@H](C)[C@H]1C(=O)NCc1ccccc1` the Ki was 0.47 nM.

— ChEMBL document CHEMBL1131211, “Cyclopropane-derived peptidomimetics. Design, synthesis, evaluation, and structure of novel HIV-1 protease inhibitors” (J Med Chem, 1998)
